Tests used:
[1] = system: IP-10; test: Cytokine production induced by sample formulations: IP-10; assay type: in vivo; conditions: mice, i.v., 0.5 mpk, 6 hours; for IP-10: in pg/mL (unit assumed)
Text: (§1) The introduction of foreign material into a mammalian body induces an innate immune response that promotes cytokine production. Such immune responses to, for example, nanoparticle compositions including therapeutic and/or prophylactic agents, are undesirable. The induction of certain cytokines is thus measured to evaluate the […] of nanoparticle compositions. The concentrations of various cytokines in mice upon intravenous administration of nanoparticle compositions presented in Tables 1, 1a, 17-1, 19-1, 20-1 and 21-1 at a dosage of 0.5 mpk was measured at 6 hours. The standard MC3 formulation and a PBS control were also tested.

[2] = Encapsulation efficiency of RNA (QUANT-IT RIBOGREEN RNA assay); assay type: physicochemical; conditions: for encapsulation efficiency, rank within the named table (in words): comparison amongst compositions
Procedure, shortened: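 Nanoparticle samples diluted to ~5 μg/mL RNA in TE buffer (pH 7.5), incubated with or without 2% Triton X-100 solution at 37 °C for 15 min, then RiboGreen added. Fluorescence read at ~480/520 nm, blank-subtracted; free RNA % = intact over Triton-disrupted signal.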

[3] = system: luciferase (Luc) mRNA expression; test: Expression of Luc induced by sample formulations, whole-body bioluminescence after intravenous administration; assay type: in vivo; conditions: mice, i.v., 0.5 mg/kg
Procedure, shortened: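 Mice (n=6) dosed intravenously with Luc mRNA nanoparticle formulations at 0.5 mg/kg. Whole-body bioluminescence measured at 3, 6 and 24 h. Standard MC3 formulation and PBS control run alongside.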

[4] = pKa of nanoparticle compositions; assay type: physicochemical
[5] = system: IL-6; test: Cytokine production induced by sample formulations: IL-6; assay type: in vivo; conditions: mice, i.v., 0.5 mpk, 6 hours; for IL-6: in pg/mL (unit assumed)
Text: as §1

[6] = Particle size and polydispersity index of nanoparticle compositions (Zetasizer Nano ZS); assay type: physicochemical; conditions: for particle size, rank within the named table (in words): comparison amongst compositions
Procedure, shortened: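 Nanoparticle compositions are diluted in 1×PBS, then size and polydispersity index are read on a Zetasizer Nano ZS instrument.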

[7] = system: modified luciferase expression; test: Expression of Luc in different organs (liver, lung, spleen, femur) 6 hours after intravenous administration; assay type: in vivo; conditions: i.v., 0.5 mpk
Protocol: The efficacy of the nanoparticle compositions presented in Tables 1, 1a, 17-1, 19-1, 20-1 and 21-1 was further evaluated by measuring the expression of modified luciferase in the liver, lung, spleen, and femur upon administration of a given composition. Formulations were administered intravenously to mice (n=3) at a dosage of 0.5 mpk and bioluminescence measured after 6 hours. The standard MC3 formulation and a PBS control were also tested.

[8] = Table 1, rows without footnote mark
[9] = Table 1, rows without footnote mark (lipid:DOPE:cholesterol:PEG-DMG 40:20:38.5:1.5, Luc mRNA; MC3 standard formulation)
[10] = Table 20-1, rows without footnote mark
[11] = Table 1, * lipid:DSPC:Chol:PEG-DMG 50:10:38.5:1.5

SMILES | particle size, rank within the named table (in words) [6] | IP-10 ([1]; Table 4) | EE (%) [2, 8] [%] | Total Flux 3 hours ([3]; Table 2) | Total Flux 6 hours ([3]; Table 2) | Total Flux 24 hours ([3]; Table 2) | pKa [4, 8] | IL-6 ([5]; Table 4) | PDI [6, 8] | Size (nm) [6, 9] [nm] | Total Flux Femur ([7]; Table 3, mice) | Total Flux Liver ([7]; Table 3, mice) | Total Flux Lung ([7]; Table 3, mice) | Total Flux Spleen ([7]; Table 3, mice) | also measured
CCCCC/C=C\C/C=C\CCCCCCCCN(CCCCCCCC/C=C\C/C=C\CCCCC)CCN1CCN(CCCCCCCCCCCC)CC1 [Compound 19-6, (9Z,12Z)—N-(2-(4-Dodecylpiperazin-1-yl)ethyl)-N-((9Z,12Z)-octadeca-9,12-dien-1-yl)octadeca-9,12-dien-1-amine] | largest particles |  |  |  |  |  |  |  |  |  |  |  |  |  | IP-10 ([1]; Table 19-4): 433; IP-10 induction, rank or comparison with IL-6 (in words) [1]: highest IP-10 expression; EE (%) ([2]; Table 19-1): 16.9%; encapsulation efficiency, rank within the named table (in words) [2]: lowest encapsulation efficiency; Total Flux 3 hours ([3]; Table 19-2): 1.07E+07; Total Flux 6 hours ([3]; Table 19-2): 1.27E+07; Total Flux 24 hours ([3]; Table 19-2): 1.29E+06; total flux / Luc expression, rank within the named table (in words) ([3]; each time point): next highest flux; pKa ([4]; Table 19-1): 5.89; IL-6 ([5]; Table 19-4): 7571; IL-6 induction, rank within the named table (in words) [5]: highest IL-6 expression; PDI ([6]; Table 19-1): 0.088; Size (nm) ([6]; Table 19-1): 137.7 nm; Total Flux Liver ([7]; Table 19-3, mice): 3.27E+06; Total Flux Lung ([7]; Table 19-3, mice): 1.81E+05; Total Flux Spleen ([7]; Table 19-3, mice): 3.47E+06
CCCCCCCCCCCCCCN(CCO)CCCCCCCCCCCCCC [Compound 17-7, 2-(Ditetradecylamino)ethan-1-ol] | smallest particles |  |  |  |  |  |  |  |  |  |  |  |  |  | IP-10 ([1]; Table 17-4): 100; EE (%) ([2]; Table 17-1): 95.6%; Total Flux 3 hours ([3]; Table 17-2): 4.68E+05; Total Flux 6 hours ([3]; Table 17-2): 6.82E+05; Total Flux 24 hours ([3]; Table 17-2): 5.46E+05; pKa ([4]; Table 17-1): 5.68; IL-6 ([5]; Table 17-4): 49.9; PDI ([6]; Table 17-1): 0.110; Size (nm) ([6]; Table 17-1): 68.5 nm; Total Flux Liver ([7]; Table 17-3, mice): 7.44E+04; Total Flux Lung ([7]; Table 17-3, mice): 1.35E+04; Total Flux Spleen ([7]; Table 17-3, mice): 3.46E+04
CCCCCCCCCN(CCCCCCCCC)CCN(CCCCCCCCC)CCN1CCN(CCN(CCCCCCCCC)CCCCCCCCC)CC1 [Compound 18, N^1-(2-(4-(2-(Dinonylamino)ethyl)piperazin-1-yl)ethyl)-N^1,N^2,N^2-trinonylethane-1,2-diamine] |  | 655 | 98.4 | 2.13E+10 | 1.76E+10 | 7.00E+08 | 6.17 | 263 | 0.120 | 76.7 | 3.31E+06 | 3.91E+09 | 1.87E+07 | 1.60E+07 | total flux after 3 hours, rank within the named table (in words) [3]: highest flux after 3 hours
CCCCCCCCCCCCN(CCCCCCCCCCCC)CCN1CCN(CCN(CCCCCC)CCN(CCCCCC)CCCCCC)CC1 [Compound 17, N^1-(2-(4-(2-(Didodecylamino)ethyl)piperazin-1-yl)ethyl)-N^1,N^2,N^2-trihexylethane-1,2-diamine] |  | 545 | 96.6 | 7.55E+09 | 2.49E+09 | 7.61E+08 | 6.67 | 164 | 0.180 | 82.3 | 6.71E+05 | 4.26E+08 | 7.26E+05 | 3.20E+06 | 
CCCCCCCCCCCCN(CCCCCCCCCCCC)CCN(CCO)CCCCCCCC(=O)OC(CCCCCCCC)CCCCCCCC [Compound 20-9, Heptadecan-9-yl 8-((2-(didodecylamino)ethyl)(2-hydroxyethyl)amino)octanoate] | smallest particles |  |  |  |  |  |  |  |  |  |  |  |  |  | IP-10 ([1]; Table 20-4, formula (20-I)): 271.1; EE (%) [2, 10]: 95.9%; Total Flux 3 hours ([3]; Table 20-2): 3.65E+08; Total Flux 6 hours ([3]; Table 20-2): 6.91E+08; Total Flux 24 hours ([3]; Table 20-2): 4.81E+07; pKa [4, 10]: 6.22; IL-6 ([5]; Table 20-4, formula (20-I)): 152.1; PDI [6, 10]: 0.130; Size (nm) [6, 10]: 64.5 nm; Total Flux Femur ([7]; Table 20-3, mice): 2.89E+05; Total Flux Liver ([7]; Table 20-3, mice): 1.57E+08; Total Flux Lung ([7]; Table 20-3, mice): 1.30E+06; Total Flux Spleen ([7]; Table 20-3, mice): 5.11E+06
CCCCCCCCCCCCCCN(CCCCCCCCCCCCCC)CCN(CCCCCCCCCCCCCC)CCN1CCN(CCN(CCCCCCCCC)CCCCCCCCC)CC1 [Compound 30, N^1-(2-(4-(2-(Dinonylamino)ethyl)piperazin-1-yl)ethyl)-N^1,N^2,N^2-tritetradecylethane-1,2-diamine] |  | 4235 | 74.3 | 2.87E+10 | 1.59E+10 | 1.95E+09 | 6.09 | 300 | 0.110 | 95.0 | 2.22E+06 | 2.42E+09 | 1.61E+07 | 7.18E+06 | total flux after 3 hours, rank within the named table (in words) [3]: highest flux after 3 hours
CCCCC/C=C\C/C=C\CCCCCCCCN(CCO)CCN(CCCCCCCC/C=C\C/C=C\CCCCC)CCCCCCCC/C=C\C/C=C\CCCCC [Compound 20-14, 2-((2-(Di((9Z,12Z)-octadeca-9,12-dien-1-yl)amino)ethyl)((9Z,12Z)-octadeca-9,12-dien-1-yl)amino)ethan-1-ol] |  |  |  |  |  |  |  |  |  |  |  |  |  |  | IP-10 ([1]; Table 20-4, formula (20-I)): 8436.6; IP-10 induction, rank or comparison with IL-6 (in words) [1]: highest; EE (%) [2, 10]: 94.5%; Total Flux 3 hours ([3]; Table 20-2): 1.76E+09; Total Flux 6 hours ([3]; Table 20-2): 4.07E+08; Total Flux 24 hours ([3]; Table 20-2): 8.10E+07; pKa [4, 10]: 5.89; IL-6 ([5]; Table 20-4, formula (20-I)): 311.1; PDI [6, 10]: 0.215; Size (nm) [6, 10]: 124.0 nm; Total Flux Liver ([7]; Table 20-3, mice): 5.22E+07; Total Flux Lung ([7]; Table 20-3, mice): 1.08E+05; Total Flux Spleen ([7]; Table 20-3, mice): 7.03E+05
CCCCC/C=C\C/C=C\CCCCCCCCN(CCCCCCCCCCCC)CCN1CCN(CCN(CCCCCCCCCCCC)CCN(CCCCCCCCCCCC)CCCCCCCCCCCC)CC1 [Compound 27, N^1,N^1,N^2-Tridodecyl-N^2-(2-(4-(2-(dodecyl((9Z,12Z)-octadeca-9,12-dien-1-yl)amino)ethyl)piperazin-1-yl)ethyl)ethane-1,2-diamine] |  | 2564 | 97.9 | 4.56E+09 | 4.70E+09 | 1.36E+08 | 6.14 | 42 | 0.211 | 86.4 |  | 7.84E+08 | 3.56E+06 | 3.34E+06 | 
CCCCCCCC/C=C\CCCCCCCCN(CCCCCCCC/C=C\CCCCCCCC)CCN(CCCCCCCC/C=C\CCCCCCCC)CCN1CCNCC1 [Compound 40, N^1,N^1,N^2-Tri((Z)-octadec-9-en-1-yl)-N^2-(2-(piperazin-1-yl)ethyl)ethane-1,2-diamine] |  | 919 |  | 1.24E+08 | 1.07E+07 | 5.62E+06 |  | 134 |  |  |  | 1.33E+06 | 1.42E+05 | 5.68E+05 | EE (%) [2, 11]: 100.0%; encapsulation efficiency, rank within the named table (in words) [2]: highest; pKa [4, 11]: 6.78; Size (nm) ([6]; Table 1, * formulated with lipid:DSPC:Chol:PEG-DMG 50:10:38.5:1.5): 78.9 nm; PDI [6, 11]: 0.210

From patent US10195156B2, “Compounds and compositions for intracellular delivery of agents” (ModernaTX, Inc., priority 2015, dated 2019)
